# Results from patent US20260062422A1 (Halda Therapeutics OpCo, Inc., priority 2022, published 2026).
# Tests used:
# [1] = test system: T-Rex 293 cell line SC3 cells lacking increased expression of androgen receptor protein; assay: Cellular growth inhibition, T-Rex 293 SC3 cells without doxycycline, CellTiter-Glo; assay type: cell-based; details: T-Rex 293 SC3 cells not exposed to doxycycline, CellTiter-Glo 2.0
# In short: (§1)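 Luminescence read-out (CellTiter-Glo 2.0) after 72 h compound exposure; GI50 by four-parameter nonlinear regression, baseline set at zero luminescence. SC3 cells, a doxycycline-inducible wild-type AR clone of T-Rex 293, were cultured ±10 ng/mL doxycycline in charcoal-dextran FBS medium.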
# [2] = test system: T-Rex 293 cell line SC3 cells having increased expression of androgen receptor protein due to exposure to doxycycline; assay: Cellular growth inhibition, T-Rex 293 SC3 cells with doxycycline (androgen receptor induced), CellTiter-Glo; assay type: cell-based; details: T-Rex 293 SC3 cells with 10 ng/mL doxycycline (increased androgen receptor expression)
# In short: as §1
# [3] = test system: VCaP cells; assay: Cellular growth inhibition assay for VCaP cells, CellTiter-Glo; assay type: cell-based, human; details: 72 hours treatment, CellTiter-Glo 2.0
# In short: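 GI50 values come from four-parameter curve fits of luminescence data normalized to a zero baseline. Compound, in medium with 0.5% DMSO, was added one day after plating and left for 72 h before CellTiter-Glo 2.0 addition.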
# [4] = test system: T47D cells; assay: Cellular growth inhibition assay for T47D cells, CellTiter-Glo; assay type: cell-based, human; details: 72 hours treatment, CellTiter-Glo 2.0 cell viability
# In short: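 Luminescence from CellTiter-Glo 2.0 after 72 h of compound exposure gives the viability signal. Cells grew in insulin-supplemented (0.2 units/mL) DMEM with 10% FBS and were treated one day after seeding at 0.5% DMSO. GI50 values come from four-parameter nonlinear regression.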
Compound,GI50 [3] [nM],GI50 [4] [nM],"GI50 ([3]; Homo sapiens, VCaP, 72 h) [nM]","GI50 ([4]; Homo sapiens, T47D, 72 h) [nM]",GI50 ([1]; 72 hours) [nM],GI50 ([2]; 72 hours) [nM],GI50 ([1]; 72 h) [nM],GI50 ([2]; 72 h) [nM]
Cc1sc2c(c1C)C(c1ccc(C#C[C@H]3C[C@@]4(CCCN(c5ncc(C(=O)N[C@H]6C(C)(C)[C@H](Oc7ccc(C#N)c(Cl)c7)C6(C)C)cn5)C4)C3)cc1)=N[C@@H](C)c1nnc(C)n1-2 [Compound I-378],–,–,< 500,> 3000,–,–,> 3000,< 500
Cc1sc2c(c1C)C(c1ccc(C(=O)N3CCC(C(=O)c4ncc(C(=O)N[C@H]5C(C)(C)[C@H](Oc6ccc(C#N)c(Cl)c6)C5(C)C)cn4)CC3)cc1)=N[C@@H](Cc1ncco1)c1nnc(C)n1-2 [Compound I-382],> 3000,> 3000,–,–,> 3000,< 500,–,–
Cc1sc2c(c1C)C(c1ccc([C@H]3CCN(C(=O)[C@@H]4CCCN(c5ncc(C(=O)N[C@H]6C(C)(C)[C@H](Oc7ccc(C#N)c(Cl)c7)C6(C)C)cn5)C4)C3)cc1)=N[C@@H](Cc1ncco1)c1nnc(C)n1-2 [Compound I-384],–,–,< 500,< 500,–,–,< 500,< 500
Cc1sc2c(c1C)C(c1ccc(CN3CC(=O)N4CC(c5ncc(C(=O)N[C@H]6C(C)(C)[C@H](Oc7ccc(C#N)c(Cl)c7)C6(C)C)cn5)C[C@H]4C3=O)cc1)=N[C@@H](Cc1ncco1)c1nnc(C)n1-2 (stereo partly drawn) [Compound I-385],–,–,1500 to 3000,> 3000,–,–,> 3000,> 3000
Cc1sc2c(c1C)C(c1ccc([C@@H]3CCN(C(=O)[C@H]4CCCN(c5ncc(C(=O)N[C@H]6C(C)(C)[C@H](Oc7ccc(C#N)c(Cl)c7)C6(C)C)cn5)C4)C3)cc1)=N[C@@H](Cc1ncco1)c1nnc(C)n1-2 [Compound I-386],–,–,> 3000,500 to 1500,–,–,> 3000,> 3000
Cc1sc2c(c1C)C(c1ccc([C@H]3CCN(C(=O)[C@H]4CCCN(c5ncc(C(=O)N[C@H]6C(C)(C)[C@H](Oc7ccc(C#N)c(Cl)c7)C6(C)C)cn5)C4)C3)cc1)=N[C@@H](Cc1ncco1)c1nnc(C)n1-2 [Compound I-387],–,–,< 500,< 500,–,–,500 to 1500,< 500
Cc1sc2c(c1C)C(c1ccc(-c3scnc3OC3CCN(c4ncc(C(=O)N[C@H]5C(C)(C)[C@H](Oc6ccc(C#N)c(Cl)c6)C5(C)C)cn4)CC3)cc1)=N[C@@H](Cc1ncco1)c1nnc(C)n1-2 [Compound I-390],–,–,< 500,> 3000,–,–,> 3000,< 500
Cc1sc2c(c1C)C(c1ccc(OC3CC4(CCN(c5ncc(C(=O)N[C@H]6C(C)(C)[C@H](Oc7ccc(C#N)c(Cl)c7)C6(C)C)cn5)CC4)C3)cc1)=N[C@@H](C)c1nnc(C)n1-2 [Compound I-391],–,–,1500 to 3000,500 to 1500,–,–,> 3000,< 500
Cc1sc2c(c1C)C(c1ccc(O[C@H]3C[C@@]4(CCCN(c5ncc(C(=O)N[C@H]6C(C)(C)[C@H](Oc7ccc(C#N)c(Cl)c7)C6(C)C)cn5)C4)C3)cc1)=N[C@@H](C)c1nnc(C)n1-2 [Compound I-392],–,–,500 to 1500,500 to 1500,–,–,> 3000,< 500
Cc1sc2c(c1C)C(c1ccc(C[C@H]3C[C@]4(CCCN(c5ncc(C(=O)N[C@H]6C(C)(C)[C@H](Oc7ccc(C#N)c(Cl)c7)C6(C)C)cn5)C4)C3)cc1)=N[C@@H](C)c1nnc(C)n1-2 [Compound I-394],–,–,< 500,< 500,–,–,> 3000,< 500
Cc1sc2c(c1C)C(c1ccc(COC3CC4(CCCN(c5ncc(C(=O)N[C@H]6C(C)(C)[C@H](Oc7ccc(C#N)c(Cl)c7)C6(C)C)cn5)C4)C3)cc1)=N[C@@H](C)c1nnc(C)n1-2 [Compound I-395],–,–,< 500,< 500,–,–,> 3000,< 500
Cc1sc2c(c1C)C(c1ccc(C(C)(C)N3CC4(CCN(c5ncc(C(=O)N[C@H]6C(C)(C)[C@H](Oc7ccc(C#N)c(Cl)c7)C6(C)C)cn5)CC4)C3)cc1)=N[C@@H](Cc1ncco1)c1nnc(C)n1-2 [Compound I-396],> 3000,–,–,> 3000,> 3000,> 3000,–,–
Cc1sc2c(c1C)C(c1ccc(C3CC(C4CCN(c5ncc(C(=O)N[C@H]6C(C)(C)[C@H](Oc7ccc(C#N)c(Cl)c7)C6(C)C)cn5)CC4)C3)cc1)=N[C@@H](Cc1ncco1)c1nnc(C)n1-2 (stereo partly drawn) [Compound I-397],–,–,> 3000,> 3000,–,–,> 3000,> 3000
Cc1sc2c(c1C)C(c1ccc([C@H]3C[C@H](C4CCN(c5ncc(C(=O)N[C@H]6C(C)(C)[C@H](Oc7ccc(C#N)c(Cl)c7)C6(C)C)cn5)CC4)C3)cc1)=N[C@@H](Cc1ncco1)c1nnc(C)n1-2 [Compound I-399],–,–,500 to 1500,< 500,–,–,> 3000,< 500
Cc1sc2c(c1C)C(c1ccc([C@H]3C[C@@H](C[C@@H]4CCCN(c5ncc(C(=O)N[C@H]6C(C)(C)[C@H](Oc7ccc(C#N)c(Cl)c7)C6(C)C)cn5)C4)C3)cc1)=N[C@@H](Cc1ncco1)c1nnc(C)n1-2 [Compound I-401],> 3000,> 3000,–,–,> 3000,> 3000,–,–
Cc1sc2c(c1C)C(c1ccc([C@H]3C[C@H](C[C@@H]4CCCN(c5ncc(C(=O)N[C@H]6C(C)(C)[C@H](Oc7ccc(C#N)c(Cl)c7)C6(C)C)cn5)C4)C3)cc1)=N[C@@H](Cc1ncco1)c1nnc(C)n1-2 [Compound I-402],500 to 1500,–,–,< 500,–,–,> 3000,< 500

# Further lines, with some results ahead:
GI50 [3] [nM],GI50 [4] [nM],"GI50 ([3]; Homo sapiens, VCaP, 72 h) [nM]","GI50 ([4]; Homo sapiens, T47D, 72 h) [nM]",Compound,GI50 ([1]; 72 hours) [nM],GI50 ([2]; 72 hours) [nM],GI50 ([1]; 72 h) [nM],GI50 ([2]; 72 h) [nM]
< 500,< 500,–,–,Cc1sc2c(c1C)C(c1ccc(CCCOC3CCN(c4ncc(C(=O)N[C@H]5C(C)(C)[C@H](Oc6ccc(C#N)c(Cl)c6)C5(C)C)cn4)CC3)cc1)=C[C@H](Cc1ccncn1)c1nnc(C)n1-2 [Compound I-376],< 500,< 500,–,–
–,–,> 3000,> 3000,Cc1sc2c(c1C)C(c1ccc(C3(N(C)CC4CCN(c5ncc(C(=O)N[C@H]6C(C)(C)[C@H](Oc7ccc(C#N)c(Cl)c7)C6(C)C)cn5)CC4)COC3)cc1)=N[C@@H](C)c1nnc(C)n1-2 [Compound I-377],–,–,> 3000,> 3000
< 500,> 3000,–,–,Cc1sc2c(c1C)C(c1ccc(C#C[C@H]3C[C@@]4(CCCN(c5ncc(C(=O)N[C@H]6C(C)(C)[C@H](Oc7ccc(C#N)c(Cl)c7)C6(C)C)cn5)C4)C3)cc1)=N[C@@H](C)c1nnc(C)n1-2 [Compound I-379],> 3000,< 500,–,–
–,–,< 500,> 3000,Cc1sc2c(c1C)C(c1ccc(CC3CC4(CCCN(c5ncc(C(=O)N[C@H]6C(C)(C)[C@H](Oc7ccc(C#N)c(Cl)c7)C6(C)C)cn5)C4)C3)cc1)=N[C@@H](C)c1nnc(C)n1-2 [Compound I-380],–,–,> 3000,< 500
–,–,> 3000,> 3000,Cc1sc2c(c1C)C(c1ccc(C(=O)N3CCC(C(=O)c4ncc(C(=O)N[C@H]5C(C)(C)[C@H](Oc6ccc(C#N)c(Cl)c6)C5(C)C)cn4)CC3)cc1)=N[C@@H](Cc1ncco1)c1nnc(C)n1-2 [Compound I-381],–,> 3000,> 3000,–
–,–,> 3000,> 3000,Cc1sc2c(c1C)C(c1ccc([C@@H]3CCN(C(=O)[C@@H]4CCCN(c5ncc(C(=O)N[C@H]6C(C)(C)[C@H](Oc7ccc(C#N)c(Cl)c7)C6(C)C)cn5)C4)C3)cc1)=N[C@@H](Cc1ncco1)c1nnc(C)n1-2 [Compound I-383],–,–,> 3000,> 3000
–,–,< 500,< 500,Cc1sc2c(c1C)C(c1ccc(N3CC4(C3)CC3(CCN(c5ncc(C(=O)N[C@H]6C(C)(C)[C@H](Oc7ccc(C#N)c(Cl)c7)C6(C)C)cn5)CC3)C4)cc1)=N[C@@H](Cc1ncco1)c1nnc(C)n1-2 [Compound I-388],–,–,> 3000,< 500
–,–,500 to 1500,< 500,Cc1sc2c(c1C)C(c1ccc(-c3cc(OC4CCN(c5ncc(C(=O)N[C@H]6C(C)(C)[C@H](Oc7ccc(C#N)c(Cl)c7)C6(C)C)cn5)CC4)ns3)cc1)=N[C@@H](Cc1ncco1)c1nnc(C)n1-2 [Compound I-389],–,–,> 3000,< 500
–,–,< 500,> 3000,Cc1sc2c(c1C)C(c1ccc(C[C@H]3C[C@@]4(CCCN(c5ncc(C(=O)N[C@H]6C(C)(C)[C@H](Oc7ccc(C#N)c(Cl)c7)C6(C)C)cn5)C4)C3)cc1)=N[C@@H](C)c1nnc(C)n1-2 [Compound I-393],–,–,> 3000,< 500
–,–,< 500,< 500,Cc1sc2c(c1C)C(c1ccc([C@H]3C[C@@H](C4CCN(c5ncc(C(=O)N[C@H]6C(C)(C)[C@H](Oc7ccc(C#N)c(Cl)c7)C6(C)C)cn5)CC4)C3)cc1)=N[C@@H](Cc1ncco1)c1nnc(C)n1-2 [Compound I-398],–,–,> 3000,< 500
–,–,> 3000,> 3000,Cc1sc2c(c1C)C(c1ccc([C@H]3C[C@@H](C[C@@H]4CCCN(c5ncc(C(=O)N[C@H]6C(C)(C)[C@H](Oc7ccc(C#N)c(Cl)c7)C6(C)C)cn5)C4)C3)cc1)=N[C@@H](Cc1ncco1)c1nnc(C)n1-2 [Compound I-400],–,–,> 3000,> 3000
